Earlier results as cited in US20240301505A1, “URINARY TRACT CANCER TREATMENT GUIDED BY MUTATIONAL LANDSCAPE” (BROWN UNIVERSITY, priority 2021, published 2024).
One block for each compound: values may come before it.

Experiments:
[1] = tested on: p21 and p53 protein expression; settings: accompanied by an increase in DNA damage and intracellular hydroxyl radicals
[2] = tested on: Bladder tumors with ARID1A deficiencies
CHK2 = CHK2 (Homo sapiens, UniProt O96017); settings: in combination with topotecan or camptothecin
[3] = tested on: advanced breast cancer with mutations in PIK3CA, AKT1 or PTEN and/or PTEN loss; settings: monotherapy, patients with advanced breast cancer with mutations in PIK3CA
p21 protein expression = settings: upon treatment
CHK1 = molecular target: T1, CHK1 (Homo sapiens, UniProt O14757); settings: in combination with gemcitabine and irinotecan
T1 sequence (O14757 1-476): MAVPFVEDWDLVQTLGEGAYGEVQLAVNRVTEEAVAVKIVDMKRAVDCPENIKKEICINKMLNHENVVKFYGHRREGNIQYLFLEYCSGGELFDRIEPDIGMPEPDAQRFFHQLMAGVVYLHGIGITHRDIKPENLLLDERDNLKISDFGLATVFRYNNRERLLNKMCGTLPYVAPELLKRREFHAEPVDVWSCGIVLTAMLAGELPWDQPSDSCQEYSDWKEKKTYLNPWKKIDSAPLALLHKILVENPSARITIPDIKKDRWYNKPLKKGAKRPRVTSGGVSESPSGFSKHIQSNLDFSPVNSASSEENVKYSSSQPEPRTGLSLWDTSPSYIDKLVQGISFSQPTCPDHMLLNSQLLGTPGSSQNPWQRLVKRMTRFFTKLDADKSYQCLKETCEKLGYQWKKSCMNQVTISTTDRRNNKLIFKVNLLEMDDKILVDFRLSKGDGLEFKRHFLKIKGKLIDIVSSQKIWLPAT

CHK2, sequence (O96017 whole entry): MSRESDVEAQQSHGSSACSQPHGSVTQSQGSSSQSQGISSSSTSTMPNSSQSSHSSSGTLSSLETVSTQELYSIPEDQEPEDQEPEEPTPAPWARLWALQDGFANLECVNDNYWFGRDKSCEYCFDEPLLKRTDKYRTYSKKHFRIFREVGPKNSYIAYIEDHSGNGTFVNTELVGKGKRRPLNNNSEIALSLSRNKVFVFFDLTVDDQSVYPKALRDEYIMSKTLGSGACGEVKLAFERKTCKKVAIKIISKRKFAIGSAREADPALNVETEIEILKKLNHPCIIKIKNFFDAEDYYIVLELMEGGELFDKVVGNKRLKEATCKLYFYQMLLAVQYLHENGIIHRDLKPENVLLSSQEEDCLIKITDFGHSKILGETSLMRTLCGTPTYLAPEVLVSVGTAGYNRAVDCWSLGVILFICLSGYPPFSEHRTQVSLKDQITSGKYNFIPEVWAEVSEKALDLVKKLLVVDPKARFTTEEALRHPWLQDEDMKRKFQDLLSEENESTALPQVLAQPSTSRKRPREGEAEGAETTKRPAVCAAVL

Compound: C[As](C)(O)=S [dimethylmonothioarsinic acid]
p21 and p53 protein expression [1]: decrease in both p21 and p53 protein expression

Compound: CC[C@H](C)n1cc(C)c2c(C(=O)NCc3c(C)cc(C)[nH]c3=O)cc(-c3ccc(N4CCNCC4)nc3)cc21 [GSK-126]
sensitivity of tumors [2]: sensitive

activity in combination (CHK2): showed enhanced activity
Compound: C/C(=N\N=C(N)N)c1ccc(NC(=O)c2cc3cccc([N+](=O)[O-])c3[nH]2)cc1 [PV1019]

Compound: NC1(c2ccc(-c3nc4ccn5c(=O)[nH]nc5c4cc3-c3ccccc3)cc2)CCC1 [MK-2206]
clinical activity [3]: limited clinical activity

Compound: Nc1ccc(-c2ccc(N)cc2)cc1 [benzidine]
p21 mRNA levels (p21): downregulate p21 mRNA levels | p21 protein levels (p21): decrease p21 protein levels

Compound: CCCCN(CCCCO)N=O [N-butyl-N-(4-hydroxybutyl)nitrosamine]
p21 protein expression (p21 protein expression): decrease in p21 protein expression

Compound: Nc1ccc(-c2ccccc2)cc1 [4-ABP, 4-Aminobiphenyl]
mutations induced occurring at G:C base pairs (G:C base pairs): 82.9%

anti-tumor activity (CHK1): showed anti-tumor activity
Compound: COc1cc(Nc2cnc(C#N)c(O[C@H](C)CN(C)C)n2)ncc1-c1cnn(C)c1 [CCT244747]
